The record followed here is patent publication US20100221228A1, “y134.5 Deficient HSV and the MAPK Pathway” (The University of Chicago, priority 2006, published 2010).

In assay [1] the test system is HT1080 cells infected with R3616. The experiment in a line: MEK inhibitor study: R3616 yield in HT1080 cells with PD98059 or DMSO. The format is cell-based, human. As for the experimental part:
(§1) Inhibitor studies—For experiments employing the known MEK inhibitor, PD98059, HT1080 cells were starved over night in serum-free medium and then exposed to 40 μM of PD98059 (EMD Biosciences, San Diego, Calif.), or DMSO (1:1000 dilution) 6 hours prior to, and during, infection. At 12 hours post-infection, whole cell lysates were created as described above for immunoblotting.
Finally, to determine if MEK inhibition affects viral replication, DMSO or PD98059 (40 μM) was added to replicate cultures of HT1080 cells 6 hours prior to, and during, infection with R3616 (1 PFU/cell).

For assay [2] the test system is unchanged. The experiment in a line: MEK inhibitor study: immunoblotting of viral proteins and phospho-PKR. The format is cell-based, human. As for the experimental part:
as §1
To determine if MEK mediates the observed mutant Ras-dependent suppression of PKR activation and resultant accumulation of viral proteins in HT1080 cells infected with mutant virus R3616, the relative expressions of representative a (ICP27), β (U142) and γ2 (glycoprotein C) viral proteins in cells treated with a specific chemical inhibitor of MEK-1 (PD98059) were compared. Replicate cultures of HT1080 cells were serum-starved overnight prior to exposure to equal volumes of DMSO or PD98059 (40 μM) for 6 hours prior to infection with R3616 mutant virus (10 PFU/cell). DMSO or drug treatment was then continued until the cells were harvested at 12 hours post-infection. The cells were then lysed and the lysates were subjected to electrophoresis in denaturing polyacrylamide gels, followed by transferring to PVDF membranes and reacting with antibody to ICP27, UL42, or gC. […] To test whether the decrease in the accumulation of gC correlated with activation of PKR, the electrophoretically separated lysates were also probed with antibody to the auto-phosphorylated form of PKR (P-Thr446). The presence of PD98059 prior to, and during, infection with R3616 […] the amount of activated PKR in HT1080 cells (FIG. 6, panel B).

The mark [3] stands for this setting: PD98059 40 μM, R3616 10 PFU/cell, 12 hours post-infection.

Take `COc1cccc(-c2cc(=O)c3ccccc3o2)c1N` [PD98059]: the “yield of R3616 lower than in the presence of DMSO” value in assay [1] (PD98059 40 μM) was “approximately 15 fold”. The “yield of R3616 mutant virus” value in assay [1] (in the presence of PD98059 40 μM, 6 hours prior to and during infection, 1 PFU/cell, 36 hours) is listed as 1.67×10^5 PFU/ml. In addition, the “amount of activated PKR (P-Thr446)” value in assay [2] (PD98059 40 μM prior to and during infection with R3616) was “increased”. Moreover, in assay [2] (setting [3]), the “accumulation of ICP27 and UL42 proteins” value is listed as “slight effect”; the “amounts of gC that accumulated” value is reported as “very dramatic decrease”.
